Values after ≈ are worked out from the molar mass of the structure shown. Active and inactive are the calls of the source. The calls are words filed in the database; no cut-off is given here.
How the values were obtained:
[1] = Antioxidant activity assessed as ferrous ion chelating activity at 200 ug/ml; type: functional; conditions: dose 200.0 µg/ml
Staphylococcus aureus = assay: Antibacterial activity against Staphylococcus aureus; type: functional
[2] = Antioxidant activity assessed as DPPH radical scavenging activity at 10 to 200 ug/ml; type: functional; conditions: dose 10-200 µg/ml
Bacillus cereus = assay: Antibacterial activity against Bacillus cereus; type: functional
Pseudomonas aeruginosa = assay: Antibacterial activity against Pseudomonas aeruginosa; type: functional
Enterococcus hirae = assay: Antibacterial activity against Enterococcus hirae; type: functional
Candida albicans = assay: Antifungal activity against Candida albicans; type: functional
DNA = assay: Induction of Escherichia coli supercoiled pBR322 DNA cleavage assessed as increase in formation of linear form of DNA at 250 ug/ml by agarose gel electrophoresis; type: nucleic-acid assay; conditions: dose 250.0 µg/ml
Candida tropicalis = assay: Antifungal activity against Candida tropicalis; type: functional
Escherichia coli = assay: Antibacterial activity against Escherichia coli; type: functional
Legionella pneumophila = assay: Antibacterial activity against Legionella pneumophila subsp. pneumophila; type: functional
[3] = Antioxidant activity assessed as ferrous ion chelating activity at 10 ug/ml; type: functional; conditions: dose 10.0 µg/ml
[4] = Antioxidant activity assessed as DPPH radical scavenging activity at 200 ug/ml relative to control; type: functional; conditions: dose 200.0 µg/ml

Row | Structure (SMILES) | Activity [1] [%] | MIC (Staphylococcus aureus) [µg/mL] | Activity [2] | MIC (Bacillus cereus) [µg/mL] | MIC (Pseudomonas aeruginosa) [µg/mL] | MIC (Enterococcus hirae) [µg/mL] | MIC (Candida albicans) [µg/mL] | Activity (DNA) | MIC (Candida tropicalis) [µg/mL] | MIC (Escherichia coli) [µg/mL] | MIC (Legionella pneumophila) [µg/mL] | Activity [3] [%] | Activity [4] [%]
1 | O=C(Cn1cc(CCn2cc(C3CCCC3)nn2)nn1)Nc1ccc(NC(=O)Cn2cc(CCn3cc(C4CCCC4)nn3)nn2)cc1 | 43.9 | 16 (≈ 24.5 µM) | Active | 64 (≈ 98 µM) | 64 (≈ 98 µM) | 4 (≈ 6.13 µM) | 32 (≈ 49 µM) | Active | 4 (≈ 6.13 µM) | 128 (≈ 196 µM) | 128 (≈ 196 µM) | – | –
2 | O=C(Cn1cc(C2CC2)nn1)Nc1ccc(NC(=O)Cn2cc(C3CC3)nn2)cc1 | 76.5 | 128 (≈ 315 µM) | Active | 64 (≈ 157 µM) | 128 (≈ 315 µM) | 64 (≈ 157 µM) | 128 (≈ 315 µM) | Active | 64 (≈ 157 µM) | 64 (≈ 157 µM) | 128 (≈ 315 µM) | – | –
3 | O=C(Cn1cc(CCn2cc(CC3CCCCC3)nn2)nn1)Nc1ccc(NC(=O)Cn2cc(CCn3cc(CC4CCCCC4)nn3)nn2)cc1 | 48.9 | 64 (≈ 90.3 µM) | Active | 64 (≈ 90.3 µM) | 64 (≈ 90.3 µM) | 16 (≈ 22.6 µM) | 8 (≈ 11.3 µM) | Active | 4 (≈ 5.64 µM) | 128 (≈ 181 µM) | 32 (≈ 45.1 µM) | – | –
4 | O=C(Cn1cc(CCn2cc(-c3ccccc3)nn2)nn1)Nc1ccc(NC(=O)Cn2cc(CCn3cc(-c4ccccc4)nn3)nn2)cc1 | 27.1 | 64 (≈ 95.7 µM) | Active | 128 (≈ 191 µM) | 64 (≈ 95.7 µM) | 16 (≈ 23.9 µM) | 64 (≈ 95.7 µM) | Active | 64 (≈ 95.7 µM) | 128 (≈ 191 µM) | 32 (≈ 47.9 µM) | – | –
5 | OC(Cn1cncn1)(Cn1cncn1)c1ccc(F)cc1F [FLUCONAZOLE] | – | – | – | – | – | – | 0.5 (≈ 1.63 µM) | – | 0.5 (≈ 1.63 µM) | – | – | – | –
6 | CC1(C)S[C@@H]2[C@H](NC(=O)[C@H](N)c3ccccc3)C(=O)N2[C@H]1C(=O)O [AMPICILLIN] | – | 1 (≈ 2.86 µM) | – | 1 (≈ 2.86 µM) | 0.5 (≈ 1.43 µM) | 0.5 (≈ 1.43 µM) | – | – | – | 0.5 (≈ 1.43 µM) | 0.5 (≈ 1.43 µM) | – | –
7 | O=C(Cn1cc(CCn2cc(CCBr)nn2)nn1)Nc1ccc(NC(=O)Cn2cc(CCn3cc(CCBr)nn3)nn2)cc1 | 45.6 | 64 (≈ 87.6 µM) | Active | 64 (≈ 87.6 µM) | 64 (≈ 87.6 µM) | 32 (≈ 43.8 µM) | 8 (≈ 11 µM) | Active | 32 (≈ 43.8 µM) | 128 (≈ 175 µM) | 8 (≈ 11 µM) | – | –
8 | O=C(Cn1cc(CC2CCCCC2)nn1)Nc1ccc(NC(=O)Cn2cc(CC3CCCCC3)nn2)cc1 | 33.8 | 64 (≈ 123 µM) | Active | 64 (≈ 123 µM) | 64 (≈ 123 µM) | 8 (≈ 15.4 µM) | 16 (≈ 30.8 µM) | Active | 32 (≈ 61.7 µM) | 4 (≈ 7.71 µM) | 16 (≈ 30.8 µM) | – | –
9 | O=C(Cn1cc(C2CCCC2)nn1)Nc1ccc(NC(=O)Cn2cc(C3CCCC3)nn2)cc1 | 67.1 | 64 (≈ 138 µM) | Active | 64 (≈ 138 µM) | 64 (≈ 138 µM) | 32 (≈ 69.2 µM) | 64 (≈ 138 µM) | Active | 32 (≈ 69.2 µM) | 128 (≈ 277 µM) | 32 (≈ 69.2 µM) | 20.6 | –
10 | CCOC(=O)c1cn(CCc2cn(CC(=O)Nc3ccc(NC(=O)Cn4cc(CCn5cc(C(=O)OCC)nn5)nn4)cc3)nn2)nn1 | 33.5 | 32 (≈ 48.4 µM) | Active | 32 (≈ 48.4 µM) | 64 (≈ 96.9 µM) | 64 (≈ 96.9 µM) | 128 (≈ 194 µM) | Active | 64 (≈ 96.9 µM) | 128 (≈ 194 µM) | 32 (≈ 48.4 µM) | – | –
11 | CCOC(=O)c1cn(CC(=O)Nc2ccc(NC(=O)Cn3cc(C(=O)OCC)nn3)cc2)nn1 | 46.5 | 32 (≈ 68 µM) | Active | 64 (≈ 136 µM) | 64 (≈ 136 µM) | 64 (≈ 136 µM) | 64 (≈ 136 µM) | Active | 32 (≈ 68 µM) | 128 (≈ 272 µM) | 64 (≈ 136 µM) | – | –
12 | O=C(Cn1cc(CCBr)nn1)Nc1ccc(NC(=O)Cn2cc(CCBr)nn2)cc1 | 30.4 | 64 (≈ 118 µM) | – | 64 (≈ 118 µM) | 64 (≈ 118 µM) | 32 (≈ 59.2 µM) | 64 (≈ 118 µM) | Active | 32 (≈ 59.2 µM) | 128 (≈ 237 µM) | 32 (≈ 59.2 µM) | – | 30.5
13 | O=C(Cn1cc(CCn2cc(C3CC3)nn2)nn1)Nc1ccc(NC(=O)Cn2cc(CCn3cc(C4CC4)nn3)nn2)cc1 | 42.8 | 64 (≈ 107 µM) | Active | 64 (≈ 107 µM) | 64 (≈ 107 µM) | 64 (≈ 107 µM) | 128 (≈ 215 µM) | Active | 64 (≈ 107 µM) | 128 (≈ 215 µM) | 32 (≈ 53.6 µM) | – | –
14 | O=C(Cn1cc(-c2ccccc2)nn1)Nc1ccc(NC(=O)Cn2cc(-c3ccccc3)nn2)cc1 | 40.1 | 64 (≈ 134 µM) | Active | 64 (≈ 134 µM) | 64 (≈ 134 µM) | 128 (≈ 267 µM) | 64 (≈ 134 µM) | Active | 32 (≈ 66.9 µM) | 64 (≈ 134 µM) | 16 (≈ 33.4 µM) | – | –
15 | CC(C)CCc1cn(CCc2cn(CC(=O)Nc3ccc(NC(=O)Cn4cc(CCn5cc(CCC(C)C)nn5)nn4)cc3)nn2)nn1 | 44.9 | 32 (≈ 48.7 µM) | – | 128 (≈ 195 µM) | 32 (≈ 48.7 µM) | 16 (≈ 24.4 µM) | 64 (≈ 97.4 µM) | Active | 32 (≈ 48.7 µM) | 128 (≈ 195 µM) | 16 (≈ 24.4 µM) | – | 21.9
16 | [N-]=[N+]=NCCc1cn(CC(=O)Nc2ccc(NC(=O)Cn3cc(CCN=[N+]=[N-])nn3)cc2)nn1 | 52.8 | 64 (≈ 138 µM) | Active | 64 (≈ 138 µM) | 64 (≈ 138 µM) | 32 (≈ 68.9 µM) | 8 (≈ 17.2 µM) | Active | 16 (≈ 34.4 µM) | 32 (≈ 68.9 µM) | 32 (≈ 68.9 µM) | – | –
17 | CC(C)CCc1cn(CC(=O)Nc2ccc(NC(=O)Cn3cc(CCC(C)C)nn3)cc2)nn1 | 70.8 | 64 (≈ 137 µM) | Active | 64 (≈ 137 µM) | 64 (≈ 137 µM) | 32 (≈ 68.6 µM) | 64 (≈ 137 µM) | Active | 32 (≈ 68.6 µM) | 128 (≈ 274 µM) | 32 (≈ 68.6 µM) | 22 | –
18 | O=C(Cn1cc(CCn2cc(CCc3ccccc3)nn2)nn1)Nc1ccc(NC(=O)Cn2cc(CCn3cc(CCc4ccccc4)nn3)nn2)cc1 | 17.3 | 64 (≈ 88.3 µM) | Active | 128 (≈ 177 µM) | 64 (≈ 88.3 µM) | 64 (≈ 88.3 µM) | 64 (≈ 88.3 µM) | Active | 16 (≈ 22.1 µM) | 128 (≈ 177 µM) | 64 (≈ 88.3 µM) | – | –
19 | O=C(Cn1cc(CCc2ccccc2)nn1)Nc1ccc(NC(=O)Cn2cc(CCc3ccccc3)nn2)cc1 | 41.4 | 32 (≈ 59.9 µM) | Active | 32 (≈ 59.9 µM) | 16 (≈ 29.9 µM) | 64 (≈ 120 µM) | 64 (≈ 120 µM) | Active | 64 (≈ 120 µM) | 128 (≈ 239 µM) | 64 (≈ 120 µM) | – | –
